# Columns and labels:
# [1] = test system: 4-week-old Hubbard x Hubbard cockerels; test: Example 1: effect of TRH on growth in 4-week-old male chicks (17 days); assay type: in vivo, chicken; conditions: for body weight gain as compared with control (in words): P 0.01
# Experimental: Four-week-old Hubbard x Hubbard cockerels were used in this experiment, and average initial weights were 841.75 g. Synthetic TRH (Beckman Co., Calif.) was dissolved in saline and given daily by intravenous injection via the brachial vein at 0.1 μg/bird, 1.0 μg/bird, and 10.0 μg/bird. Birds were weighed and feed consumption was measured at 2 times a week for 21/2 weeks. Data were analyzed by least squares analyses of variance, using initial weight as a covariant.
# [2] = test system: 4-week-old Hubbard×Hubbard cockerels; test: Example 2: effect of TRH on growth in 4-week-old male chicks (25 days); assay type: in vivo, chicken
# Experimental: Four-week-old Hubbard×Hubbard cockerels were used in this experiment, and average weight was 831.38 g. Synthetic TRH (Beckman Co., CA) was dissolved in saline and given daily by intravenous injection via the brachial vein at 0.1 μg/bird, 1.0 μg/bird, and 10 μg/ bird. Birds were weighed twice a week for 4 weeks. Data were analyzed by least squares of variance, using initial weight as a covariant.
# [3] = 0.1 μg/bird daily intravenous, day 3 after start of treatment
# [4] = 0.1 μg/bird daily intravenous, day 7 after start of treatment
# [5] = 0.1 μg/bird daily intravenous, day 10 after start of treatment
# [6] = 0.1 μg/bird daily intravenous, day 14 after start of treatment
# [7] = 0.1 μg/bird daily intravenous, day 17 after start of treatment
# [8] = 1.0 μg/bird daily intravenous, day 3 after start of treatment
# [9] = 1.0 μg/bird daily intravenous, day 7 after start of treatment
# [10] = 1.0 μg/bird daily intravenous, day 10 after start of treatment
# [11] = 1.0 μg/bird daily intravenous, day 14 after start of treatment
# [12] = 1.0 μg/bird daily intravenous, day 14 after start of treatment, P < 0.01
# [13] = 1.0 μg/bird daily intravenous, day 17 after start of treatment, P < 0.01
# [14] = 1.0 μg/bird/day, 14 and 17 days after the start of treatment
# [15] = 10 μg/bird daily intravenous, day 3 after start of treatment
# [16] = 10 μg/bird daily intravenous, day 7 after start of treatment
# [17] = 10 μg/bird daily intravenous, day 10 after start of treatment
# [18] = 10 μg/bird daily intravenous, day 14 after start of treatment
# [19] = 10 μg/bird daily intravenous, day 14 after start of treatment, P < 0.01
# [20] = 10 μg/bird daily intravenous, day 17 after start of treatment, P < 0.01
# [21] = 10 μg/bird/day, 14 and 17 days after the start of treatment
# [22] = 1.0 μg/bird/day, 22 (p 0.05) and 25 (p 0.025) days after the start of treatment
# [23] = TRH (high) 10 μg/bird daily intravenous, day 4 after start of treatment
# [24] = TRH (high) 10 μg/bird daily intravenous, day 8 after start of treatment
smiles,measurement,setting,value
"NC(=O)[C@@H]1CCCN1C(=O)[C@H](Cc1c[nH]cn1)NC(=O)[C@@H]1CCC(=O)N1 [TRH, Glp--His--Pro--NH2]",body weight gain,[1]; [3],171.7 ± 9.8 g
same,"body weight gain, percent increased as compared with control",[1]; [3],+0.6%
same,"body weight, least squares mean ± SEM corrected by initial weight",[1]; [3],1009.3 ± 9.7 g
same,"body weight, percent increased as compared with control",[1]; [3],+0.1%
same,body weight gain,[1]; [4],393.1 ± 14.7 g
same,"body weight gain, percent increased as compared with control",[1]; [4],+5.0%
same,"body weight, least squares mean ± SEM corrected by initial weight",[1]; [4],1230.6 ± 14.7 g
same,"body weight, percent increased as compared with control",[1]; [4],+1.5%
same,body weight gain,[1]; [5],569.4 ± 19.7 g
same,"body weight gain, percent increased as compared with control",[1]; [5],+5.5%
same,"body weight, least squares mean ± SEM corrected by initial weight",[1]; [5],1406.9 ± 19.7 g
same,"body weight, percent increased as compared with control",[1]; [5],+2.2%
same,body weight gain,[1]; [6],824.3 ± 24.9 g
same,"body weight gain, percent increased as compared with control",[1]; [6],+8.9%
same,"body weight, least squares mean ± SEM corrected by initial weight",[1]; [6],1662.1 ± 24.8 g
same,"body weight, percent increased as compared with control",[1]; [6],+4.0%
same,body weight gain,[1]; [7],999.5 ± 27.8 g
same,"body weight gain, percent increased as compared with control",[1]; [7],+7.5%
same,"body weight, least squares mean ± SEM corrected by initial weight",[1]; [7],1837.1 ± 27.8 g
same,"body weight, percent increased as compared with control",[1]; [7],+3.9%
same,body weight compared with birds receiving saline injections (in words),[1]; 0.1 μg/bird/day,slight increase in the body weight
same,body weight gain,[1]; [8],174.2 ± 9.7 g
same,"body weight gain, percent increased as compared with control",[1]; [8],+2.1%
same,"body weight, least squares mean ± SEM corrected by initial weight",[1]; [8],1011.8 ± 9.7 g
same,"body weight, percent increased as compared with control",[1]; [8],+0.3%
same,body weight gain,[1]; [9],409.2 ± 14.6 g
same,"body weight gain, percent increased as compared with control",[1]; [9],+9.3%
same,"body weight, least squares mean ± SEM corrected by initial weight",[1]; [9],1246.7 ± 14.6 g
same,"body weight, percent increased as compared with control",[1]; [9],+2.9%
same,body weight gain,[1]; [10],582.9 ± 19.6 g
same,"body weight gain, percent increased as compared with control",[1]; [10],+8.0%
same,"body weight, least squares mean ± SEM corrected by initial weight",[1]; [10],1420.5 ± 19.6 g
same,"body weight, percent increased as compared with control",[1]; [10],+3.2%
same,"body weight gain, percent increased as compared with control",[1]; [11],+13.1%
same,"body weight, percent increased as compared with control",[1]; [11],+6.0%
same,body weight gain,[1]; [12],856.2 ± 24.8 g
same,"body weight, least squares mean ± SEM corrected by initial weight",[1]; [12],1693.7 ± 24.6 g
same,"body weight, percent increased as compared with control","[1]; 1.0 μg/bird daily intravenous, day 17 after start of treatment",+6.3%
same,"body weight gain, percent increased as compared with control","[1]; 1.0 μg/bird daily intravenous, day 17 after start of treatment (end of experiment)",12.0%
same,body weight gain,[1]; [13],1041.2 ± 27.6 g
same,"body weight, least squares mean ± SEM corrected by initial weight",[1]; [13],1878.8 ± 27.6 g
same,body weight compared with birds receiving saline injections (in words),[1]; [14],increased body weight significantly
same,body weight gain as compared with control (in words),[1]; [14],significant increase
same,body weight gain,[1]; [15],181.6 ± 8.7 g
same,"body weight gain, percent increased as compared with control",[1]; [15],+6.4%
same,"body weight, least squares mean ± SEM corrected by initial weight",[1]; [15],1019.2 ± 8.7 g
same,"body weight, percent increased as compared with control",[1]; [15],+1.1%
same,body weight gain,[1]; [16],399.3 ± 13.1 g
same,"body weight gain, percent increased as compared with control",[1]; [16],+6.7%
same,"body weight, least squares mean ± SEM corrected by initial weight",[1]; [16],1236.9 ± 13.1 g
same,"body weight, percent increased as compared with control",[1]; [16],+2.1%
same,body weight gain,[1]; [17],584.0 ± 7.6 g
same,"body weight gain, percent increased as compared with control",[1]; [17],+8.2%
same,"body weight, least squares mean ± SEM corrected by initial weight",[1]; [17],1421.6 ± 17.6 g
same,"body weight, percent increased as compared with control",[1]; [17],+3.2%
same,"body weight gain, percent increased as compared with control",[1]; [18],+12.7%
same,"body weight, percent increased as compared with control",[1]; [18],+5.8%
same,body weight gain,[1]; [19],853.3 ± 22.2 g
same,"body weight, least squares mean ± SEM corrected by initial weight",[1]; [19],1690.8 ± 22.0 g
same,"body weight, percent increased as compared with control","[1]; 10 μg/bird daily intravenous, day 17 after start of treatment",+6.5%
same,body weight gain,[1]; [20],1044.9 ± 24.7 g
same,"body weight, least squares mean ± SEM corrected by initial weight",[1]; [20],1882.5 ± 24.7 g
same,body weight compared with birds receiving saline injections (in words),[1]; [21],increased body weight significantly
same,body weight gain as compared with control (in words),[1]; [21],significant increase
same,body weight compared with birds receiving saline injections (in words),[2]; 0.1 μg/bird/day,slight increase in body weight
same,body weight compared with birds receiving saline injections (in words),[2]; [22],significant increase in body weight
same,body weight gain as compared with control birds (in words),[2]; [22],significant increase
same,body weight compared with birds receiving saline injections (in words),[2]; 10 μg/bird/day,slight increase in body weight
same,body weight gain as compared with control birds (in words),"[2]; 10 μg/bird/day, throughout the whole experiment",slight increase in body weight gain
same,body weight gain,[2]; [23],156.3 ± 8.4 g
same,"body weight gain, percent increase as compared with control",[2]; [23],4.6%
same,"body weight, least squares mean ± standard error of the mean corrected by initial weight",[2]; [23],997.7 ± 8.3 g
same,"body weight, percent increased as compared with control",[2]; [23],0.7%
same,body weight gain,[2]; [24],377.9 ± 15.1 g
same,"body weight gain, percent increase as compared with control",[2]; [24],0%
same,"body weight, least squares mean ± standard error of the mean corrected by initial weight",[2]; [24],1219.1 ± 15.0 g

# From patent publication US4493828A, “Use of thyrotropin releasing hormone and related peptides as poultry growth promotants” (Merck & Co., Inc., priority 1982, dated 1985)
